Measurements taken from patent US12590108B2, “Boracic acid compound” (Phaeno Therapeutics Co., Ltd, priority 2020, dated 2026).

Key:
[1] = tested on: Klebsiella pneumoniae ATCC BAA-1705; experiment: Mouse thigh muscle infection model, bacterial load; assay type: in vivo, CD-1 female mice; details: endpoint 12 h
Procedure: 36 CD-1 female mice were divided into 12 cages with 3 […] in each cage. The day of infection was denoted as day 0.
Immunosuppressant cyclophosphamide at 150 mg/kg was injected intraperitoneally on day −4 and immunosuppressant cyclophosphamide at 100 mg/kg was injected intraperitoneally on day −1 to induce immunodeficient mice.
On day −1, the strain Klebsiella pneumoniae ATCC BAA-1705 was resuscitated on an MHA plate. Resuscitated colonies were picked and dissolved in sterile physiological saline to prepare a bacterial solution with a concentration of 5.6E+07 CFU/mL for thigh muscle infection in mice. The initial time of infection was denoted as 0 h, and 100 μL of the bacterial solution was injected into each mouse at the thigh muscle at 0 h, that is, the inoculation amount was 5.6E+06 CFU/mouse. 2 h after infection, dosing was performed according to the experimental scheme. The specific experimental scheme was as follows (see Table 4): • (1) 2 h after infection: for the 1st cage of mice, at the endpoint, thigh muscle tissue was taken and placed in 10 mL of sterile physiological saline, the tissue was homogenized by a homogenizer, and the homogenate was diluted in a gradient and spotted in a plate, with two replicates for each mouse. • (2) 2 h after infection: the 2nd to 12th cages were respectively treated at 10 mL/kg by volume according to the body weight of the mice, the 2nd cage of mice were given a vehicle by intravenous injection every 2 h, and the endpoint was 12 h; the 3rd cage of mice were given 100 mg/kg of meropenem by intravenous injection every 2 h, and the endpoint was 12 h; the 4th cage of mice were given 100 mg/kg of meropenem and 20 mg/kg of QPX7728 by intravenous injection every 2 h, and the endpoint was 12 h; the 5th cage of mice were given 100 mg/kg of meropenem and 100 mg/kg of compound 15 by intravenous injection every 2 h, and the endpoint was 12 h; the 6th cage of mice were given 100 mg/kg of meropenem and 20 mg/kg of compound 15 by intravenous injection every 2 h, and the endpoint was 12 h; the 7th cage of mice were given 100 mg/kg of meropenem and 4 mg/kg of compound 15 by intravenous injection every 2 h, and the endpoint was 12 h; the 8th cage of mice were given 100 mg/kg of cefepime by intravenous injection every 2 h, and the endpoint was 12 h; the 9th cage of mice were given 100 mg/kg of cefepime and 20 mg/kg of QPX7728 by intravenous injection every 2 h, and the endpoint was 12 h; the 10th cage of mice were given 100 mg/kg of cefepime and 100 mg/kg of compound 15 by intravenous injection every 2 h, and the endpoint was 12 h; the 11th cage of mice were given 100 mg/kg of cefepime and 20 mg/kg of compound 15 by intravenous injection every 2 h, and the endpoint was 12 h; and the 12th cage of mice were given 100 mg/kg of cefepime and 4 mg/kg of compound 15 by intravenous injection every 2 h, and the endpoint was 12 h. At the endpoint of 12 h, thigh muscle tissue was taken and placed in 10 mL of sterile physiological saline, the tissue was homogenized by a homogenizer, and the homogenate was diluted in a gradient and spotted in a plate, with two replicates for each mouse. The bacterial load in the thigh muscle tissue of the mice was counted, and the experiment was summarized as follows (see Table 5): […]

[2] = tested on: Klebsiella pneumoniae NCTC 13439 (VIM); experiment: MIC shift, liquid microdilution, test compound fixed at 8 μg/mL; assay type: cell-based; details: NCTC13439, meropenem alone, K. pneumoniae NCTC 13439
Procedure: (§1) Preparation of compound mother plate: On the day of the experiment, the compound to be tested (the final concentration was 0.3125 to 20 μg/mL) and meropenem (the final concentration ranged from 1 to 64 μg/mL) were dissolved in a corresponding solvent (sterile ddH2O or DMSO) to form 100× mother liquors with the highest test concentration, and the compound to be tested and meropenem were then subjected to 2-fold series gradient dilution in a V-bottom 96-well plate to obtain 100× working solutions with the final concentration.
(§2) Preparation of inoculation solution: Fresh bacterial clones were picked from an overnight Mueller Hinton II Agar medium (MHA, Cat. No. 211438, BD BBLTM) plate, suspended in sterilized physiological saline, and adjusted to a concentration of 1×10^8 CFU/mL, and the suspension was further diluted to 5-10^5 CFU/mL with Cation-Adjusted Mueller Hinton II Broth (MHB, Catalog #212332, BD BBLTM).
(§3) Detection of minimum inhibitory concentration (MIC): 1 μL of the compound to be tested and the meropenem working solution were transferred to the corresponding wells to be tested in a round-bottomed 96-well plate (Catalog #3788, Corning), and 98 μL of the inoculation solution was added to the round-bottomed 96-well plate containing drugs, which was an MIC test plate; and after the plate was inverted and cultured at 37° C. for 20-24 h, the MIC value was read, and the minimum inhibitory concentration for inhibiting bacterial growth was defined as MIC.
(§4) The test compound was tested for minimum inhibitory concentration against 5 strains of Klebsiella pneumoniae ATCC BAA-1705 (KPC-2), ATCC BAA-2470 (NDM-1), ARLG-1196 (CTM-1 group, SHA NDM, TEM), NCTC 13440 (VIM-1), and NCTC 13439 (VIM), and one strain of Escherichia coli ARLG-2829 (NDM-5, OXA-1). According to the requirements of the Institute of Clinical And Laboratory Standard (CLSI), the minimum inhibitory concentration (MIC) of each drug combination was determined by liquid microdilution method under the premise of fixing the concentration of the compound to be tested at 8 μg/mL. The test method was the same as above, and the concentration of meropenem ranged from 0.125 to 8 μg/mL.

[3] = tested on: Klebsiella pneumoniae ATCC BAA-2470 (NDM-1); experiment: as above; assay type: cell-based; details: ATCCBAA2470
Procedure: as §1, §2, §3, §4

[4] = tested on: Klebsiella pneumoniae ATCC BAA-1705 (KPC-2); experiment: as above; assay type: cell-based; details: ATCCBAA1705, meropenem alone, K. pneumoniae ATCC BAA-1705
Procedure: as §1, §2, §3, §4

[5] = tested on: Klebsiella pneumoniae ARLG-1196 (CTM-1 group, SHA NDM, TEM); experiment: as above; assay type: cell-based; details: meropenem alone, K. pneumoniae ARLG-1196
Procedure: as §1, §2, §3, §4

[6] = tested on: Klebsiella pneumoniae NCTC 13440 (VIM-1); experiment: as above; assay type: cell-based; details: NCTC13440, meropenem alone, K. pneumoniae NCTC 13440
Procedure: as §1, §2, §3, §4

[7] = tested on: Escherichia coli ARLG-2829 (NDM-5, OXA-1); experiment: as above; assay type: cell-based
Procedure: as §1, §2, §3, §4

CCOc1ccc2c(c1C(=O)O)O[B-](O)(O)CO2 [Compound 15]
Average CFU in mice (thigh muscle tissue) ([1]; cefepime 100 mg/kg + inhibitor 4 mg/kg i.v. q2h): 5.68E+06 CFU/mouse
Average CFU in mice (thigh muscle tissue) ([1]; cefepime 100 mg/kg + inhibitor 20 mg/kg i.v. q2h): 2.06E+06 CFU/mouse
Average CFU in mice (thigh muscle tissue) ([1]; cefepime 100 mg/kg + inhibitor 100 mg/kg i.v. q2h): 1.24E+06 CFU/mouse
Average CFU in mice (thigh muscle tissue) ([1]; meropenem 100 mg/kg + inhibitor 4 mg/kg i.v. q2h): 1.65E+07 CFU/mouse
Average CFU in mice (thigh muscle tissue) ([1]; meropenem 100 mg/kg + inhibitor 20 mg/kg i.v. q2h): 4.08E+06 CFU/mouse
Average CFU in mice (thigh muscle tissue) ([1]; meropenem 100 mg/kg + inhibitor 100 mg/kg i.v. q2h): 2.02E+06 CFU/mouse

C[C@@H](O)[C@H]1C(=O)N2C(C(=O)O)=C(S[C@@H]3CN[C@H](C(=O)N(C)C)C3)[C@H](C)[C@H]12 [Meropenem, meropenem, reference compound]
Average CFU in mice (thigh muscle tissue) ([1]; antibiotic alone 100 mg/kg i.v. q2h): 4.83E+08 CFU/mouse
MIC [2]: 4 µg/mL
MIC [3]: 128 µg/mL
MIC [4]: 32 µg/mL
MIC [5]: 64 µg/mL
MIC [6]: 16 µg/mL
MIC [7]: 128 µg/mL
